Results on 13 compounds are retold here after patent US9072734B2, “Quaternary ammonium salt compounds” (Teijin Pharma Limited, priority 2009, dated 2015).

As a reminder, the IC50 is the concentration needed to halve the response being measured. The term EC50 denotes the concentration giving half of the maximal effect.

Assay [1] deals with T1, human M3 muscarinic receptor (Homo sapiens, UniProt P20309).
T1 construct: expressed in transfected cells; host or cells: CHO-K1
Put plainly: Inhibitory effect on methacholine-induced calcium influx, FLIPR assay, CHO-K1 cells stably expressing the human M3 muscarinic receptor. It is filed as cell-based. The settings on record: inhibition of calcium influx induced by methacholine. The text has this: Muscarinic receptor subtypes (M1, M3 and M5 receptors), which couple to Gq proteins, activate the phospholipase C (PLC) pathway upon agonist binding to the receptor. As a result, the activated PLC hydrolyzes phosphatidyl inositol diphosphate (PIP2) to diacyl glycerol (DAG) and […] (IP3), which in turn generates calcium release from intracellular stores, i.e., endoplasmic and sarcoplasmic reticula. By utilizing FLIPR (Molecular Devices, Inc.) assay in which a calcium sensitive dye (Component A) is used that fluoresces when free calcium binds, the increase in intracellular calcium is measured on the basis of the change in the fluorescence intensity.
Methacholine was added to CHO-K1 cells stably expressing the human M3 muscarinic receptor to induce calcium influx and evaluate the inhibitory effect of test compounds. In the experiment, a FLIPR Calcium assay kit (Molecular Devices, Inc.) was used.
CHO-K1 cells stably expressing the human M3 muscarinic receptor suspended in Ham's F-12 media (Invitrogen, Co.) containing 10% fetal bovine serum (FBS) were seeded into 96-well FLIPR plates at a volume of 100 μL/well. Next day, 60 μL/well of Non-wash-dye solution (Hank's buffered salt solution, HBSS, containing 20 mM HEPES and 6.5 mM probenecid) was added to the cells, which were then incubated for an hour at 37° C. in the presence of 5% carbon dioxide. 20 μL of 10 concentrations of test compound solutions (HBSS containing 1% DMSO, 20 mM HEPES, 2.5 mM probenecid and 0.05% bovine serum albumin, BSA) prepared at concentrations in a range of 0.01-1000 nM with 2-fold serial dilution) were added, followed by incubation for 180 seconds. Then, 20 μL of 30 nM methacholine solution (HBSS containing 20 mM HEPES, 2.5 mM probenecid and 0.05% bovine serum albumin, BSA) was added, and fluorescence intensity was traced by the intracellular calcium influx measuring device FLIPR 96 (Molecular Devices, Inc.) for 170 seconds. The difference between the lowest and the highest values of the fluorescence intensity (FI) over the period of the measurement was used as a measured value. The percentages of inhibition by the test compounds were calculated according to the following formula from the measured value of the methacholin-added and test compound non-added sample (FIpositive), the measured value of the methacholin non-added and test compound non-added sample (FInegative), and the measured value of the methacholin-added and test compound-added sample (FItest). (%) Percentage of inhibition by test compound=[(1−(FItest−FInegative)/(FIpositive−FInegative)]×100
The 50% inhibitory concentrations (IC50 values) of test compounds were analyzed by a four-parameter logistic model using XLfit4 (IDBS, Ltd.) for the percentage of the inhibition by different concentrations of test compounds.

For assay [2], the target named is T2, human β2 adrenergic receptor (Homo sapiens, UniProt P07550).
T2 construct: expressed in transfected cells; host or cells: CHO-K1
T2 sequence (P07550 whole entry): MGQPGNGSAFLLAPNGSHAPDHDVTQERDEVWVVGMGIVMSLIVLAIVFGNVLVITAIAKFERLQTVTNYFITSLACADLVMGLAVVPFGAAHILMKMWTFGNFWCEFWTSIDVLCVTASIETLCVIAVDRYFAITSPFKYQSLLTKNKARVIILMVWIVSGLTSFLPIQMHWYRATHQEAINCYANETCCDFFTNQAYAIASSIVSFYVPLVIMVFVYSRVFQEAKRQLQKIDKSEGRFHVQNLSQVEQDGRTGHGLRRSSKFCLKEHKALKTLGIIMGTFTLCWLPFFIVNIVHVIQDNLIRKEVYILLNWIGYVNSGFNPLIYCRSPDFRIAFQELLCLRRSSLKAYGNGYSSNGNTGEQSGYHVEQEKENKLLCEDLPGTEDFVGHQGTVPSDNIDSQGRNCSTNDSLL
In words: Whole-cell cAMP Flashplate assay using CHO-K1 cells stably expressing human β2 adrenergic receptor. Format: cell-based. Conditions: cAMP production. As to the method: The β2 adrenergic receptor, which couples to Gs proteins, activates adenylate cyclase upon agonist binding to the receptor. As a result, cAMP is produced in cells. The activation ability of the β2 adrenergic receptor can be measured by measuring the amount of the cAMP with cAMP-Screen System (Applied Biosystems).
CHO-K1 cells expressing the human β2 adrenergic receptor suspended in Ham's F-12 media containing 10% FBS were seeded into 96-well plates at a volume of 100 μL/well. Next day, they were washed with 200 μL PBS(−), to which 80 μL of 0.5 mM IBMX solution (Ham's F-12 media containing 0.05% BSA) was then added, followed by incubation for 20 minutes at 37° C. in the presence of 5% carbon dioxide. 20 μL of 9 concentrations of test compound solutions (0.5 mM IBMX solution containing 1% DMSO) prepared at concentrations in a range of 0.01-1000 nM with 2-fold serial dilution) were added, followed by incubation for 20 minutes at 37° C. in the presence of 5% carbon dioxide. Then, 100 μL of Assay/Lysis Buffer (a reagent that comes with cAMP Screen System) was added. The cells were lysed by pipetting, further incubated for 30 minutes at 37° C., and then frozen at −80° C. After several days, samples, thawed at room temperature, were treated according to the protocol of cAMP Screen System, and then chemiluminescence was measured by EnVision (PerkinElmer, Inc.). The amount of cAMP was calculated from the standard curve for the standard attached to cAMP Screen System.
The concentrations of a test compound at which 50% of its maximal effect is reached (EC50 values) were analyzed by a four-parameter logistic model using XLfit4 (IDBS, Ltd.) for the amounts of cAMP production at different concentrations of the test compounds.

Where a name gives a salt, the structure may show the parent alone.

T1 sequence (P20309 whole entry): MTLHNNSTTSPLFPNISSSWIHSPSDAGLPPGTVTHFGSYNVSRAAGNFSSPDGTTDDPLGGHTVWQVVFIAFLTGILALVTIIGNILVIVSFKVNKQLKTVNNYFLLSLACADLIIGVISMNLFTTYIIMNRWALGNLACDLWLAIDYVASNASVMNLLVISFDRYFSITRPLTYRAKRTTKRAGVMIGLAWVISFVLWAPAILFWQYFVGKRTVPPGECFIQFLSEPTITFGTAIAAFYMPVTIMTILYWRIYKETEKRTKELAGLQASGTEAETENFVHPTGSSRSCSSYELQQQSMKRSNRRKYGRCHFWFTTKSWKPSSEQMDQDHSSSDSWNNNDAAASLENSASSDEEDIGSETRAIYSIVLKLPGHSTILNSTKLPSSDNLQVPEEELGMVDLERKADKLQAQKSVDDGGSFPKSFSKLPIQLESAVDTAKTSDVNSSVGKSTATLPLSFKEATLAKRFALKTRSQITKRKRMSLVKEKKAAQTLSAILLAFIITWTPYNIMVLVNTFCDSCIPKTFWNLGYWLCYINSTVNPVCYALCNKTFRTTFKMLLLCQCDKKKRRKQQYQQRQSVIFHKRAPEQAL

As for `C[N+]1(C)CCC(OC(=O)Nc2cc(CCC(=O)Nc3ccc(CNC[C@H](O)c4ccc(O)c5[nH]c(=O)ccc45)c(Cl)c3)ccc2-c2ccccc2)CC1` [Example 3, 4-({[5-(2-{[3-chloro-4-({[(2R)-2-hydroxy-2-(8-hydroxy-2-oxo-1,2-dihydroquinolin-5-yl)ethyl]amino}methyl)phenyl]carbamoyl}ethyl)-2-phenylphenyl]carbamoyl}oxy)-1,1-dimethylpiperidin-1-ium trifluoroacetate], the half-maximal inhibitory concentration (IC50) in assay [1] was 16.2 nM. Further, it took 9.7 nM to reach a half-maximal effect in assay [2] (EC50). Consider `C[N+]1(C)CCC(OC(=O)Nc2cc(CCC(=O)Nc3ccc(CNC[C@H](O)c4ccc(O)c5[nH]c(=O)ccc45)cc3F)ccc2-c2ccccc2)CC1` [Example 4, 4-({[5-(2-{[2-fluoro-4-({[2R)-2-hydroxy-2-(8-hydroxy-2-oxo-1,2-dihydroquinolin-5-yl)ethyl]amino}methyl)phenyl]carbamoyl}ethyl)-2-phenylphenyl]carbamoyl}oxy)-1,1-dimethylpiperidin-1-ium trifluoroacetate], for which the half-maximal inhibitory concentration (IC50) in assay [1] was found to be 4.9 nM. The compound further returned a half-maximal effective concentration (EC50) in assay [2] of 4.1 nM. Taken in the same sequence, the figures for `C[N+]1(C)CCC(OC(=O)Nc2cc(CCC(=O)Nc3cc(F)c(CNC[C@H](O)c4ccc(O)c5[nH]c(=O)ccc45)cc3F)ccc2-c2ccccc2)CC1` [Example 5, 4-({[5-(2-{[2,5-difluoro-4-({[(2R)-2-hydroxy-2-(8-hydroxy-2-oxo-1,2-dihydroquinolin-5-yl)ethyl]amino}methyl)phenyl]carbamoyl}ethyl)-2-phenylphenyl]carbamoyl}oxy)-1,1-dimethylpiperidin-1-ium trifluoroacetate] were 19.2 nM and 8.2 nM.

As to `C[N+]1(C)CCC(OC(=O)Nc2cc(CCC(=O)Nc3ccc(CNC[C@H](O)c4ccc(O)c5[nH]c(=O)ccc45)c(F)c3)ccc2-c2ccccc2)CC1` [Example 7, 4-({[5-(2-{[3-fluoro-4-({[(2R)-2-hydroxy-2-(8-hydroxy-2-oxo-1,2-dihydroquinolin-5-yl)ethyl]amino}methyl)phenyl]carbamoyl}ethyl)-2-phenylphenyl]carbamoyl}oxy)-1,1-dimethylpiperidin-1-ium trifluoro acetate], the IC50 in assay [1] stood at 14.5 nM. In assay [2], this compound showed an EC50 of 5.1 nM. For the compound `Cc1cc(NC(=O)CCc2ccc(-c3ccccc3)c(NC(=O)OC3CC[N+](C)(C)CC3)c2)ccc1CNC[C@H](O)c1ccc(O)c2[nH]c(=O)ccc12` [Example 8, 4-({[5-(2-{[4-({[(2R)-2-hydroxy-2-(8-hydroxy-2-oxo-1,2-dihydroquinolin-5-yl)ethyl]amino}methyl)-3-methylphenyl]carbamoyl}ethyl)-2-phenylphenyl]carbamoyl}oxy)-1,1-dimethylpiperidin-1-ium trifluoroacetate], the IC50 in assay [1] turned out to be 13.5 nM. In assay [2], this compound came in with an EC50 of 5.1 nM.

Turning to `C[N+]1(C)CCC(OC(=O)Nc2cc(CCC(=O)Nc3ccc(CNC[C@H](O)c4ccc(O)c5[nH]c(=O)ccc45)cc3Cl)ccc2-c2ccccc2)CC1` [Example 9, 4-({[5-(2-{[2-chloro-({[(2R)-2-hydroxy-2-(8-hydroxy-2-oxo-1,2-dihydroquinolin-5-yl)ethyl]amino}methyl)phenyl]carbamoyl}ethyl)-2-phenylphenyl]carbamoyl}oxy)-1,1-dimethylpiperidin-1-ium trifluoroacetate], in assay [1], the half-inhibitory concentration (IC50) is 10.1 nM. The compound also came in with a 50% effective concentration (EC50) in assay [2] of 1.9 nM. Taken in the same sequence, the figures for `COc1cc(CNC[C@H](O)c2ccc(O)c3[nH]c(=O)ccc23)ccc1NC(=O)CCc1ccc(-c2ccccc2)c(NC(=O)OC2CC[N+](C)(C)CC2)c1` [Example 10, 4-({[5-(2-{[4-({[(2R)-2-hydroxy-2-(8-hydroxy-2-oxo-1,2-dihydroquinolin-5-yl)ethyl]amino}methyl)-2-methoxyphenyl]carbamoyl}ethyl)-2-phenylphenyl]carbamoyl}oxy)-1,1-dimethylpiperidin-1-ium trifluoroacetate] were 10.5 nM and 3.9 nM.

With `Cc1cc(CNC[C@H](O)c2ccc(O)c3[nH]c(=O)ccc23)ccc1NC(=O)CCc1ccc(-c2ccccc2)c(NC(=O)OC2CC[N+](C)(C)CC2)c1` [Example 11, 4-({[5-(2-{[4-({[(2R)-2-hydroxy-2-(8-hydroxy-2-oxo-1,2-dihydroquinolin-5-yl)ethyl]amino}methyl)-2-methylphenyl]carbamoyl}ethyl)-2-phenylphenyl]carbamoyl}oxy)-1,1-dimethylpiperidin-1-ium trifluoroacetate], the IC50 in assay [1] amounted to 9.7 nM. Further, in assay [2], the EC50 came to 3.7 nM.

As to `C[N+]1(C)CCC(OC(=O)Nc2cc(CCCC(=O)NCc3ccc(CNC[C@H](O)c4ccc(O)c5[nH]c(=O)ccc45)cc3)ccc2-c2ccccc2)CC1` [Example 66, 4-[({5-[3-({[4-({[(2R)-2-hydroxy-2-(8-hydroxy-2-oxo-1,2-dihydroquinolin-5-yl)ethyl]amino}methyl)phenyl]methyl}carbamoyl)propyl]-2-phenylphenyl}carbamoyl)oxy]-1,1-dimethylpiperidin-1-ium trifluoroacetate], in assay [2], the response was half-maximal at 12.6 nM (EC50). Same read-out and setting: then `C[N+]1(C)CCC(OC(=O)Nc2cc(/C=C/C(=O)Nc3ccc(CNC[C@H](O)c4ccc(O)c5[nH]c(=O)ccc45)cc3)ccc2-c2ccccc2)CC1` [Example 67, 4-[({5-[(1E)-2-{[4-({[(2R)-2-hydroxy-2-(8-hydroxy-2-oxo-1,2-dihydroquinolin-5-yl)ethyl]amino}methyl)phenyl]carbamoyl}-1-ethen-1-yl]-2-phenylphenyl}carbamoyl)oxy]-1,1-dimethylpiperidin-1-ium trifluoroacetate], with 0.4 nM; and `C[N+]1(C)CCC(OC(=O)Nc2cc(CCC(=O)NCCCCCNC[C@H](O)c3ccc(O)c4[nH]c(=O)ccc34)ccc2-c2ccccc2)CC1` [Example 74, 4-({[5-(2-{[5-{[(2R)-2-hydroxy-2-(8-hydroxy-2-oxo-1,2-dihydroquinolin-5-yl)ethyl]amino}pentyl]carbamoyl}ethyl)-2-phenylphenyl]carbamoyl}oxy)-1,1-dimethylpiperidin-1-ium trifluoroacetate], with 4.5 nM. The compound `C[N+]1(C)CCC(OC(=O)Nc2cc(C(=O)OCCCCCCCNCC(O)c3ccc(O)c4[nH]c(=O)ccc34)ccc2-c2ccccc2)CC1` [Example 75, 4-{[5-({[(7-{[(2R)-2-hydroxy-2-(8-hydroxy-2-oxo-1,2-dihydroquinolin-5-yl)ethyl]amino}heptyl)oxy]carbonyl}-2-phenylphenyl)carbamoyl]oxy}-1,1-dimethylpiperidin-1-ium trifluoro acetate] yielded a concentration for a half-maximal effect (EC50) in assay [2] of 0.5 nM. On to `C[N+]1(C)CCC(OC(=O)Nc2cc(OCCOc3ccc(CCNC[C@H](O)c4ccc(O)c5[nH]c(=O)ccc45)cc3)ccc2-c2ccccc2)CC1` [Example 79, 4-{[(5-{2-[4-(2-{[(2R)-2-hydroxy-2-(8-hydroxy-2-oxo-1,2-dihydroquinolin-5-yl)ethyl]amino}ethyl)phenoxy]ethoxy}-2-phenylphenyl)carbamoyl]oxy}-1,1-dimethylpiperidin-1-ium trifluoro acetate], for which a half-maximal effect in assay [2] (EC50) was put at 5.8 nM.
